The source of these data is US9067937B2 (priority 2012, dated 2015).

Structures can show the parent of a compound that is named as a salt. Where two headings read alike, the source gives them in different places.

What is called IC50 is the concentration that inhibits the measured activity by half.

The test system of experiment [1] is 22Rv1 cells. Kind of experiment: Cell-based assay, anti-proliferative activity (Cell Counting Kit-8, 72 hours). The arrangement: species or system human. As to conditions: read-out: IC50 (μM) (22Rvl). The procedure: (§1) Active candidate inhibitors against MELK were evaluated for their target-specific cytotoxicity using 22Rv1, T47D, A549, DU4475 and HT-1197 cells was used for negative control. 100 micro-L of cell suspension was seeded onto 96-well microtiter plate (ViewPlate-96FTC, PerkinElmer). The initial cell concentration of 22Rv1, T47D, A549, DU4475, and HT1197 were 3,000 cells/well, 2,000 cells/well and 2,500 cells/well, respectively. Cellular growth was determined using Cell Counting Kit-8 (DOJINDO) at 72 hours after the exposure of the candidate inhibitors. […] Accurate IC50 values were calculated as described previously.
For orientation: Formazan colour is commonly taken as a measure of viable cells.

For experiment [2], the system named is A549 cells. The description is as above. The arrangement: species or system human. As to conditions: read-out: IC50 (μM) (A549). The protocol:
as §1

Experiment [3] concerns DU4475 cells. Described as above. The arrangement: species or system human. As to conditions: read-out: IC50 (μM) (DU4475). The procedure:
as §1

Experiment [4] relates to T47D cells. The experiment is described as above. The arrangement: species or system human. As to conditions: read-out: IC50 (μM) (T47D). The protocol:
as §1

For experiment [5], the target named is MELK (Homo sapiens, UniProt Q14680). Nature of the experiment: Kinase assay (IMAP fluorescence polarization, FITC-labeled histone H3 peptide). Format: biochemical. To be noted: 50 micro-M ATP. The procedure: MELK activity was determined in the presence or absence of compounds using fluorescein isothiocyanate-labeled (FITC-labeled) histone H3 peptide as a substrate. […] The serially diluted compounds, 0.8 ng/micro-L […] (Carna Biosciences) and 100 nM FITC-labeled histone H3 peptide were reacted in a reaction buffer (20 mM HEPES, 0.01% Tween-20, 0.3 mM MgCl2, 2 mM dithiothreitol, 50 micro-M ATP, pH 7.4) at room temperature for 1 hour. The reaction was stopped by the addition of three fold assay volume of progressive binding solution. […] IC50 values were calculated by nonlinear four parameter fit using SigmaPlot, version 10.0 (Systat Software, Inc.).
For orientation: Polarisation of emitted light reports the rotation of a fluorescent probe.

Experiment [6] relates to HT1197 cells. Kind of experiment: Cell-based assay, anti-proliferative activity, MELK-negative control (Cell Counting Kit-8, 72 hours). The arrangement: species or system human. To be noted: read-out: IC50 (μM) (HTll97). The protocol: 100 micro-L of cell suspension was seeded onto 96-well microtiter plate (ViewPlate-96FTC, PerkinElmer). The initial cell concentration of 22Rv1, T47D, A549, DU4475, and HT1197 were 3,000 cells/well, 2,000 cells/well and 2,500 cells/well, respectively. Cellular growth was determined using Cell Counting Kit-8 (DOJINDO) at 72 hours after the exposure of the candidate inhibitors. […] Accurate IC50 values were calculated as described previously.

Where [7] appears, read: HT1197 cells (MELK-negative control), 72 hours.

Sequence of MELK (Q14680 whole entry, looked up): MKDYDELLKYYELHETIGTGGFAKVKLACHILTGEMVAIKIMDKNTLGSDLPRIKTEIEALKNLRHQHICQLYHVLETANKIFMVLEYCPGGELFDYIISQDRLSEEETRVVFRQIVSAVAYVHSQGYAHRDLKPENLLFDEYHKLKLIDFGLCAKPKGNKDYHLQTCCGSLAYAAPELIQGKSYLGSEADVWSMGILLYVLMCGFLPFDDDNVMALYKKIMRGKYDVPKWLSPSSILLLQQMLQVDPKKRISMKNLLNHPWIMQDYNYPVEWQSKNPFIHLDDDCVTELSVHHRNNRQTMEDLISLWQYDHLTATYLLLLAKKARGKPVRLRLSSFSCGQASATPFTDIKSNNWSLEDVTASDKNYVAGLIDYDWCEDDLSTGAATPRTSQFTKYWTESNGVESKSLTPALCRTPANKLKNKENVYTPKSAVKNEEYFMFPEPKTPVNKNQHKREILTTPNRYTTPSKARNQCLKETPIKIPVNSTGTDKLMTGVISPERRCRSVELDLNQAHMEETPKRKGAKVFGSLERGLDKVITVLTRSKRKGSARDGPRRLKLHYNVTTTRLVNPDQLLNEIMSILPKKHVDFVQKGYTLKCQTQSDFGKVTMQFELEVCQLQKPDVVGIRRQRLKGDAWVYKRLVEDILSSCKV

Consider `CC(=O)c1cnc2ccc(-c3cc(Cl)c(O)c(Cl)c3)nc2c1N[C@H]1CC[C@H](N)CC1` [Example 66, 1-{4-[trans-(4-Aminocyclohexyl)amino]-6-(3,5-dichloro-4-hydroxyphenyl)-1,5-naphthyridin-3-yl}-ethanone dihydrochloride], for which the IC50 in experiment [1] (Homo sapiens, 22Rv1, 72 h) was 0.0045 µM; in experiment [2] (Homo sapiens, A549, 72 h), 0.016 µM; in experiment [3] (Homo sapiens, DU-4475, 72 h) it was 0.001 µM; in experiment [4] (Homo sapiens, T47D, 72 h), 0.0018 µM; in experiment [5], 0.0018 µM; in experiment [6] (Homo sapiens, HT1197, 72 h), 10 µM.

Consider “(S)-(4-{[6-(3-aminopiperidin-1- yl)pyridin-3-yl]amino}-6-(3-chloro-5- fluoro-4-hydroxyphenyl)-1,5- naphthyridin-3- yl)(cyclobutyl)methanone [Example 213]”, for which the IC50 is 0.0071 µM in experiment [1] (22Rv1 cells, 72 hours); 0.029 µM in experiment [2] (A549 cells, 72 hours); 0.003 µM in experiment [3] (DU4475 cells, 72 hours); 0.0043 µM in experiment [4] (T47D cells, 72 hours); 0.0011 µM in experiment [5]; 1.7 µM in experiment [6] (setting [7]).

Consider `CC(=O)c1cnc2ccc(-c3cc(F)c(O)c(Cl)c3)nc2c1N[C@H]1CC[C@H](CN(C)C)CC1` [Example 7, 1-{6-(3-Chloro-5-fluoro-4-hydroxyphenyl)-4-({trans-4-[(dimethylamino)methyl]cyclohexyl}-amino)-1,5-naphthyridin-3-yl}ethanone dihydrochloride], for which the IC50 was determined as 0.0061 µM in experiment [1] (Homo sapiens, 22Rv1, 72 h); 0.0097 µM in experiment [2] (Homo sapiens, A549, 72 h); 0.0036 µM in experiment [3] (Homo sapiens, DU-4475, 72 h); 0.0035 µM in experiment [4] (Homo sapiens, T47D, 72 h); 0.0013 µM in experiment [5]; 0.11 µM in experiment [6] (Homo sapiens, HT1197, 72 h).

For `CC(=O)c1cnc2ccc(-c3cc(F)c(O)c(Cl)c3)nc2c1Nc1ccc(CCN(C)C)cc1` [Example 30, 1-[6-(3-Chloro-5-fluoro-4-hydroxyphenyl)-4-{4-[2-(dimethylamino)ethyl]phenylamino}-1,5-naphthyridin-3-yl)ethanone dihydrochloride], the IC50 in experiment [1] (Homo sapiens, 22Rv1, 72 h) came to 0.17 µM; in experiment [2] (Homo sapiens, A549, 72 h), 0.14 µM; in experiment [3] (Homo sapiens, DU-4475, 72 h), 0.041 µM; in experiment [4] (Homo sapiens, T47D, 72 h) it was 0.11 µM; in experiment [5], 0.0059 µM; in experiment [6] (Homo sapiens, HT1197, 72 h), 1.2 µM.

Regarding `CN(C)CCOc1ccc(Nc2c(S(C)(=O)=O)cnc3ccc(-c4cc(Cl)c(O)c(Cl)c4)nc23)cn1` [Example 24, 2,6-Dichloro-4-(8-{6-[2-(dimethylamino)ethoxy]pyridin-3-ylamino}-7-(methylsulfonyl)-1,5-naphthyridin-2-yl)phenol hydrochloride], the IC50 in experiment [1] (Homo sapiens, 22Rv1, 72 h) amounted to 1.8 µM; in experiment [2] (Homo sapiens, A549, 72 h) it was 5.1 µM; in experiment [3] (Homo sapiens, DU-4475, 72 h) it was 0.38 µM; in experiment [4] (Homo sapiens, T47D, 72 h), 0.58 µM; in experiment [5], 0.0053 µM; in experiment [6] (Homo sapiens, HT1197, 72 h) it was 15 µM.

In the case of `CC(=O)c1cnc2ccc(-c3cc(F)c(O)c(Cl)c3)nc2c1N[C@H]1CC[C@H](NC(=O)C(N)C(C)C)CC1` (stereo partly drawn) [Example 69, N-(trans-4-{[3-Acetyl-6-(3-chloro-5-fluoro-4-hydroxyphenyl)-1,5-naphthyridin-4-yl]amino}-cyclohexyl)-2-amino-3-methylbutanamide dihydrochloride], the half-maximal inhibitory concentration (IC50) amounted to 0.025 µM in experiment [1] (Homo sapiens, 22Rv1, 72 h); 0.064 µM in experiment [2] (Homo sapiens, A549, 72 h); 0.013 µM in experiment [3] (Homo sapiens, DU-4475, 72 h); 0.007 µM in experiment [4] (Homo sapiens, T47D, 72 h); 0.0012 µM in experiment [5]; 2.5 µM in experiment [6] (Homo sapiens, HT1197, 72 h).

On to `CC(=O)c1cnc2ccc(-c3cc(F)c(O)c(Cl)c3)nc2c1N1CCC(CCN2CCCC2)CC1` [Example 37, 1-[6-(3-Chloro-5-fluoro-4-hydroxyphenyl)-4-{4-[2-(pyrrolidin-1-yl)ethyl]piperidin-1-yl}-1,5-naphthyridin-3-yl]ethanone dihydrochloride], for which the concentration for half-maximal inhibition (IC50) in experiment [1] (Homo sapiens, 22Rv1, 72 h) was 0.49 µM; in experiment [2] (Homo sapiens, A549, 72 h), 1.2 µM; in experiment [3] (Homo sapiens, DU-4475, 72 h) it was 0.42 µM; in experiment [4] (Homo sapiens, T47D, 72 h), 0.25 µM; in experiment [5] it was 0.01 µM; in experiment [6] (Homo sapiens, HT1197, 72 h) it was 7.2 µM.

For the compound `CC(=O)c1cnc2ccc(-c3cc(C)c(O)c(C)c3)nc2c1N[C@H]1CC[C@H](CN(C)C)CC1` [Example 59, 1-(4-{trans-4-[(Dimethylamino)methyl]-cyclohexylamino}-6-(4-hydroxy-3,5-dimethylphenyl)-1,5-naphthyridin-3-yl) ethanone dihydrochloride], the IC50 was found to be 2.5 µM in experiment [1] (Homo sapiens, 22Rv1, 72 h); 0.23 µM in experiment [2] (Homo sapiens, A549, 72 h); 0.21 µM in experiment [3] (Homo sapiens, DU-4475, 72 h); 0.39 µM in experiment [4] (Homo sapiens, T47D, 72 h); 0.0047 µM in experiment [5]; 7.5 µM in experiment [6] (Homo sapiens, HT1197, 72 h).

As for `CC(=O)c1cnc2ccc(-c3cc(Cl)c(O)c(Cl)c3)nc2c1Nc1cnc(N2CCC(N)C2)nc1` (stereo not drawn) [Example 41, 1-{4-[2-(3-Aminopyrrolidin-1-yl)pyrimidin-5-ylamino]-6-(3,5-dichloro-4-hydroxyphenyl)-1,5-naphthyridin-3-yl}ethanone trihydrochloride], the IC50 was found to be 0.052 µM in experiment [1] (Homo sapiens, 22Rv1, 72 h); 0.27 µM in experiment [2] (Homo sapiens, A549, 72 h); 0.026 µM in experiment [3] (Homo sapiens, DU-4475, 72 h); 0.027 µM in experiment [4] (Homo sapiens, T47D, 72 h); 0.0017 µM in experiment [5]; 100 µM in experiment [6] (Homo sapiens, HT1197, 72 h).

Take “(R)-1-(4-{[6-(3-aminopiperidin-1- yl)pyridin-3-yl]amino}-6-(3,5- dichloro-4-hydroxyphenyl)-1,5- naphthyridin-3-yl)-2-methylpropan-1- one trihydrochloride [Example 215]”: the IC50 in experiment [1] (22Rv1 cells, 72 hours) was found to be 0.032 µM; in experiment [2] (A549 cells, 72 hours), 0.083 µM; in experiment [3] (DU4475 cells, 72 hours), 0.014 µM; in experiment [4] (T47D cells, 72 hours), 0.016 µM; in experiment [5] it was 0.0065 µM; in experiment [6] (setting [7]), 1.7 µM.

Regarding `CC(=O)c1cnc2ccc(-c3cc(Cl)c(O)c(Cl)c3)nc2c1N[C@H]1CC[C@H](CN2CCOCC2)CC1` [Example 47, 1-[6-(3,5-Dichloro-4-hydroxyphenyl)-4-{[trans-4-(morpholinomethyl)cyclohexyl]amino}-1,5-naphthyridin-3-yl]ethanone], the IC50 in experiment [1] (Homo sapiens, 22Rv1, 72 h) was found to be 0.034 µM; in experiment [2] (Homo sapiens, A549, 72 h), 0.02 µM; in experiment [3] (Homo sapiens, DU-4475, 72 h) it was 0.009 µM; in experiment [4] (Homo sapiens, T47D, 72 h), 0.015 µM; in experiment [5], 0.01 µM; in experiment [6] (Homo sapiens, HT1197, 72 h), 0.16 µM.

With `CNC1CCN(c2ccc(Nc3c(C(C)=O)cnc4ccc(-c5cc(Cl)c(O)c(Cl)c5)nc34)cn2)C1` (stereo not drawn) [Example 53, 1-(6-(3,5-Dichloro-4-hydroxyphenyl)-4-{6-[3-(methylamino)pyrrolidin-1-y]pyridin-3-ylamino}-1,5-naphthyridin-3-yl)ethanone trihydrochloride], the IC50 was 0.078 µM in experiment [1] (Homo sapiens, 22Rv1, 72 h); 0.2 µM in experiment [2] (Homo sapiens, A549, 72 h); 0.071 µM in experiment [3] (Homo sapiens, DU-4475, 72 h); 0.042 µM in experiment [4] (Homo sapiens, T47D, 72 h); 0.0015 µM in experiment [5]; 100 µM in experiment [6] (Homo sapiens, HT1197, 72 h).

On to `CC(=O)c1cnc2ccc(-c3cc(Cl)c(O)c(Cl)c3)nc2c1N[C@H]1CC[C@H](CN(C)CCO)CC1` [Example 48, 1-[6-(3,5-Dichloro-4-hydroxyphenyl)-4-(trans-4-{[(2-hydroxyethyl)(methyl)amino]methyl}-cyclohexylamino)-1,5-naphthyridin-3-yl]ethanone dihydrochloride], for which the IC50 in experiment [1] (Homo sapiens, 22Rv1, 72 h) was determined as 0.0092 µM; in experiment [2] (Homo sapiens, A549, 72 h), 0.02 µM; in experiment [3] (Homo sapiens, DU-4475, 72 h), 0.0034 µM; in experiment [4] (Homo sapiens, T47D, 72 h) it was 0.0068 µM; in experiment [5], 0.0006 µM; in experiment [6] (Homo sapiens, HT1197, 72 h), 0.57 µM.

On to `CC(=O)c1cnc2ccc(-c3cc(F)c(O)c(Cl)c3)nc2c1N[C@H]1CC[C@H](CN(C)CCO)CC1` [Example 49, 1-[6-(3-Chloro-5-fluoro-4-hydroxyphenyl)-4-(trans-4-{[(2-hydroxyethyl)(methyl)amino]-methyl}cyclohexylamino)-1,5-naphthyridin-3-yl]ethanone dihydrochloride], for which the half-maximal inhibitory concentration (IC50) in experiment [1] (Homo sapiens, 22Rv1, 72 h) turned out to be 0.0087 µM; in experiment [2] (Homo sapiens, A549, 72 h), 0.021 µM; in experiment [3] (Homo sapiens, DU-4475, 72 h) it was 0.0039 µM; in experiment [4] (Homo sapiens, T47D, 72 h) it was 0.0039 µM; in experiment [5], 0.001 µM; in experiment [6] (Homo sapiens, HT1197, 72 h) it was 0.49 µM.

`CC(=O)c1cnc2ccc(-c3ccc(C#N)nc3)nc2c1N[C@H]1CC[C@H](CN(C)C)CC1` [Example 87, 5-(7-Acetyl-8-{trans-4-[(dimethylamino)methyl]cyclohexylamino}-1,5-naphthyridin-2-yl)picolinonitrile dihydrochloride]: the concentration for half-maximal inhibition (IC50) turned out to be 0.66 µM in experiment [1] (Homo sapiens, 22Rv1, 72 h); 1.8 µM in experiment [2] (Homo sapiens, A549, 72 h); 0.74 µM in experiment [3] (Homo sapiens, DU-4475, 72 h); 0.66 µM in experiment [4] (Homo sapiens, T47D, 72 h); 0.0045 µM in experiment [5]; 2 µM in experiment [6] (Homo sapiens, HT1197, 72 h).
